In brackets after ≈: the same amount, converted by molar mass. Read-outs that look alike come from different tables or passages of the source.
What was measured:
M. tuberculosis CDC1551 = assay: 96 well plate growth inhibition; conditions: visual, 8–10 d
[1] = tested on: M. tuberculosis Erdman (control strain); assay: 96 well plate growth inhibition
[2] = tested on: MSH biosynthesis in M. tuberculosis Erdman; assay: MSH and GlcN-Ins levels in M. tuberculosis Erdman cultured 7 d with 2; conditions: 20–75 μM 2, 7 d culture, two independent experiments
M. tuberculosis Erdman = assay: Inhibition of exponentially growing M. tuberculosis Erdman, 7 d flask culture
[3] = biological target: recombinant M. tuberculosis MshC (Mycobacterium tuberculosis, UniProt P9WJM9); format: biochemical
Sequence of recombinant M. tuberculosis MshC (P9WJM9 whole entry, looked up): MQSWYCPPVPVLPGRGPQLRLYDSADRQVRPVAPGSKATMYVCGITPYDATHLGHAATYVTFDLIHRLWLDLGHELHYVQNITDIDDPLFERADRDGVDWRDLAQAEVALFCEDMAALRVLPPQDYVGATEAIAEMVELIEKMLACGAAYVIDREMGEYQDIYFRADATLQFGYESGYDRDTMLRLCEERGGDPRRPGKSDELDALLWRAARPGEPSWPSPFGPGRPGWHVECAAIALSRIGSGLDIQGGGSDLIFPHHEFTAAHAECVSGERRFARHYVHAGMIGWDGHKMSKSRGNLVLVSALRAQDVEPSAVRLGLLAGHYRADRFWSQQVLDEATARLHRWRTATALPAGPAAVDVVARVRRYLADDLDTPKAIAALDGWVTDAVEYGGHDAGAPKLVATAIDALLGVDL

Vero-E6 cells = conditions: African green monkey, 2 d

SMILES: CN(CCCNC(=O)c1ccc2c(c1)N(Cc1cccc(Cl)c1)C(=O)c1ccccc1[S+]2[O-])C1CCCCC1 (stereo not shown) [Compound 2, N-[3-(cyclohexylmethylamino)propyl]-10-[(3-chlorophenyl)methyl]-10,11-dihydro-11-oxo-dibenzo-[b,f][1,4]-thiazepine-8-carboxamide-5-oxide]
- MIC95 (95% inhibition) (M. tuberculosis CDC1551): 110 µM (≈ 62.1 µg/mL)
- MIC95 (95% inhibition) [1]: 28 to 55 µM
- increase in the level of GlcN-Ins [2]: 9 fold
- concentration at which inhibition of growth was apparent (M. tuberculosis Erdman): 20 µM
- viable cells relative to day 0 inoculum (M. tuberculosis Erdman; 50 or 75 μM, plating): one-third

SMILES: CN(CCCNC(=O)c1ccc2c(c1)N(Cc1cccc(Cl)c1)C(=O)c1ccccc1S2)C1CCCCC1 [Compound 5, 10-(3-Chlorobenzyl)-N-(3-(cyclohexyl(methyl)amino)-propyl)-11-oxo-10,11 dihydrodibenzo[b,f][1,4]thiazepine-8-carboxamide]
- MshC inhibition, in words ([3]; SAR discussion): less active than their corresponding sulfoxides

SMILES: O=C(NCCCSC1CCCCC1)c1ccc2c(c1)N(Cc1cccc(Cl)c1)C(=O)c1ccccc1[S+]2[O-] (stereo not shown) [Compound 6]
- MshC inhibition, in words ([3]; SAR discussion): complete loss of measurable activity

SMILES: CCCCSCCCNC(=O)c1ccc2c(c1)N(Cc1cccc(Cl)c1)C(=O)c1ccccc1[S+]2[O-] (stereo not shown) [Compound 8]
- MshC inhibition, in words [3]: complete loss of measurable activity

SMILES: CC1CC(C)CN(CCCNC(=O)c2ccc3c(c2)N(Cc2cccc(Cl)c2)C(=O)c2ccccc2[S+]3[O-])C1 (stereo not shown) [Compound 10]
- MshC inhibition, in words [3]: less effective

SMILES: CCC1CCCCN1CCCNC(=O)c1ccc2c(c1)N(Cc1cccc(Cl)c1)C(=O)c1ccccc1[S+]2[O-] (stereo not shown) [Compound 12]
- Vero Cell toxicity (MIC90) (Vero-E6 cells): 100 µM

SMILES: O=C(NCCCN1CCOCC1)c1ccc2c(c1)N(Cc1cccc(Cl)c1)C(=O)c1ccccc1[S+]2[O-] (stereo not shown) [Compound 14]
- MshC inhibition, in words [3]: similarly ineffective

SMILES: O=C(NCCCN1CCOCC1)c1ccc2c(c1)N(Cc1cccc(Cl)c1)C(=O)c1ccccc1S2 [Compound 15]
- MshC inhibition, in words ([3]; SAR discussion): less active than their corresponding sulfoxides

SMILES: O=C(NCCCN1CCCC1)c1ccc2c(c1)N(Cc1cccc(Cl)c1)C(=O)c1ccccc1[S+]2[O-] (stereo not shown) [Compound 17]
- MIC95 (95% inhibition) (M. tuberculosis CDC1551): 220 µM (≈ 115 µg/mL)

SMILES: O=C(NCCCN1CCCC1)c1ccc2c(c1)N(Cc1cccc(Cl)c1)C(=O)c1ccccc1S2 [Compound 18]
- MshC inhibition, in words ([3]; SAR discussion): less active than their corresponding sulfoxides
- MIC95 (95% inhibition) (M. tuberculosis CDC1551): 110 µM (≈ 55.7 µg/mL)

SMILES: CC1CCCN(CCCNC(=O)c2ccc3c(c2)N(Cc2cccc(Cl)c2)C(=O)c2ccccc2[S+]3[O-])C1 (stereo not shown) [Compound 19]
- Vero Cell toxicity (MIC90) (Vero-E6 cells): 100 µM

SMILES: O=C(NCCN1CCCCCC1)c1ccc2c(c1)N(Cc1cccc(Cl)c1)C(=O)c1ccccc1[S+]2[O-] (stereo not shown) [Compound 20]
- Vero Cell toxicity (MIC90) (Vero-E6 cells): 100 µM
- MIC95 (95% inhibition) (M. tuberculosis CDC1551): 110 µM (≈ 59 µg/mL)

SMILES: CC1CCCN(CCCNC(=O)c2ccc3c(c2)N(Cc2ccc(F)cc2)C(=O)c2ccccc2[S+]3[O-])C1 (stereo not shown) [Compound 35]
- fold less active than 3-chlorobenzyl derivative 19 [3]: 5 fold

SMILES: CCCN(CCC)CCCNC(=O)c1ccc2c(c1)N(Cc1ccc(F)cc1)C(=O)c1ccccc1[S+]2[O-] (stereo not shown) [Compound 36]
- fold loss in activity compared with 21 [3]: 30 fold

SMILES: CN(CCCNC(=O)c1ccc2c(c1)N(Cc1ccc(F)cc1)C(=O)c1ccccc1[S+]2[O-])C1CCCCC1 (stereo not shown) [Compound 37]
- fold increase of IC50 / loss in activity compared to 2 [3]: > 35 fold

SMILES: Cc1ccc(CN2C(=O)c3ccccc3[S+]([O-])c3ccc(C(=O)NCCCN(C)C4CCCCC4)cc32)c(C)c1 (stereo not shown) [Compound 40]
- MshC inhibition, in words ([3]; SAR discussion): just detectable inhibition

SMILES: CCN(CC)CCCNC(=O)c1ccc2c(c1)N(Cc1ccc(C)cc1C)C(=O)c1ccccc1[S+]2[O-] (stereo not shown) [Compound 41]
- MshC inhibition, in words ([3]; SAR discussion): no measurable inhibition

SMILES: Cc1ccc(CN2C(=O)c3ccccc3S(=O)(=O)c3ccc(C(=O)NCCCN4CCCC4)cc32)c(C)c1 [Compound 42]
- MshC inhibition, in words ([3]; SAR discussion): just detectable inhibition

SMILES: Cc1ccc(CN2C(=O)c3ccccc3S(=O)(=O)c3ccc(C(=O)NCCCN4CCOCC4)cc32)c(C)c1 [Compound 43]
- MshC inhibition, in words ([3]; SAR discussion): no measurable inhibition
